Results taken from ChEMBL document CHEMBL1909046, “DrugMatrix in vitro pharmacology data”.

Assays:
[1] = DRUGMATRIX: beta-Lactamase enzyme inhibition (substrate: Nitrocefin); set-up: species or system Bacillus cereus; conditions: Not Active = under 50% inhibition at 10 µM
[2] = biological target: 5-hydroxytryptamine receptor 2B (Homo sapiens, UniProt P41595); type: cell membranes, CHO-K1, Membrane; also: in other assays of this panel Not Active means under 50% inhibition at 10 µM
[3] = biological target: 5-hydroxytryptamine receptor 4 (Cavia porcellus, UniProt O70528); type: cell membranes, Dunkin-Hartley, Striatum, Membrane; also: in other assays of this panel Not Active means under 50% inhibition at 10 µM
[4] = DRUGMATRIX: Glutamate, AMPA radioligand binding (ligand: [3H] AMPA); type: cell membranes, Rattus norvegicus, Wistar, Cerebral cortex, Membrane; conditions: Not Active = under 50% inhibition at 10 µM
Cytochrome P450 2A6 = biological target: T1, Cytochrome P450 2A6 (Homo sapiens, UniProt P11509); conditions: bti-tn-5b1-4; also: in other assays of this panel Not Active means under 50% inhibition at 10 µM
T1 sequence (P11509 whole entry): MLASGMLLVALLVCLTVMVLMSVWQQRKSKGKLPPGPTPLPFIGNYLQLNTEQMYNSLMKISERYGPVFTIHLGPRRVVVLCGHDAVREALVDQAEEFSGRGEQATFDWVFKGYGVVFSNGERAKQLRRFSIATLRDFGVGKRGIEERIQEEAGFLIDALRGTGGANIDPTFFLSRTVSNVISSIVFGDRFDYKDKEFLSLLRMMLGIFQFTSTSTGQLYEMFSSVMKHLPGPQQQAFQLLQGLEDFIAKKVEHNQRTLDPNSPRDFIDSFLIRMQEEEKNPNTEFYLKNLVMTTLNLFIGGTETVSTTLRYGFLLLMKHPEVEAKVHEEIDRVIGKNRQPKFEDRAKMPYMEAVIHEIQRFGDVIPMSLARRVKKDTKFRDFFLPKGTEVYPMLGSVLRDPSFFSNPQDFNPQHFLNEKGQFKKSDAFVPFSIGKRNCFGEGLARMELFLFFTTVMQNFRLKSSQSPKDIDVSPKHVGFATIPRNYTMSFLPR

[5] = biological target: Mitogen-activated protein kinase 1 (Homo sapiens, UniProt P28482); experiment: DRUGMATRIX: Protein Serine/Threonine Kinase, ERK2 enzyme inhibition (substrate: Myelin Basic Protein); set-up: species or system Escherichia coli; conditions: Not Active = under 50% inhibition at 10 µM
Mitogen-activated protein kinase 1, sequence (P28482 whole entry): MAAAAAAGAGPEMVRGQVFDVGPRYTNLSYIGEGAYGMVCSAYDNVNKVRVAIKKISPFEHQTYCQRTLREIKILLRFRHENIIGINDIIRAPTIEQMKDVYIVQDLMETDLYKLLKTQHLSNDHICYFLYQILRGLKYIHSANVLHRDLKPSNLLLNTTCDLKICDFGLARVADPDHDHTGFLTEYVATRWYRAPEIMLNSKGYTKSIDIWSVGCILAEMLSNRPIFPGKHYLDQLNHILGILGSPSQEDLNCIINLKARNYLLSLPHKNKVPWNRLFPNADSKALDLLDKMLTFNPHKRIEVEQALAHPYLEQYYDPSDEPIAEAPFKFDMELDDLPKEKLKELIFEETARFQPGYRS

5-hydroxytryptamine receptor 2B, sequence (P41595 whole entry): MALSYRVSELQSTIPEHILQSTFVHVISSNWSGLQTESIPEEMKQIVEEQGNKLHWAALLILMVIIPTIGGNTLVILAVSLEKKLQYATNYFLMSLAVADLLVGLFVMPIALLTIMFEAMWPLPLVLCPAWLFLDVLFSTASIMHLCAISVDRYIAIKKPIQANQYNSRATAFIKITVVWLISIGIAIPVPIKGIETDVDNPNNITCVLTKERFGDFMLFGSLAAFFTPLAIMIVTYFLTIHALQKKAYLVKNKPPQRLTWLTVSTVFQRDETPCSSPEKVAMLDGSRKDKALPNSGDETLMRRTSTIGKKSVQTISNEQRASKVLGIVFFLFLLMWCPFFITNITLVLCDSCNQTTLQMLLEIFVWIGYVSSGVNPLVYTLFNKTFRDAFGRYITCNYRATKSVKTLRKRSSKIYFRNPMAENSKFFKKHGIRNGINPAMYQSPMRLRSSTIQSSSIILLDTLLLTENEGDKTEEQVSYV
5-hydroxytryptamine receptor 4, sequence (O70528 whole entry): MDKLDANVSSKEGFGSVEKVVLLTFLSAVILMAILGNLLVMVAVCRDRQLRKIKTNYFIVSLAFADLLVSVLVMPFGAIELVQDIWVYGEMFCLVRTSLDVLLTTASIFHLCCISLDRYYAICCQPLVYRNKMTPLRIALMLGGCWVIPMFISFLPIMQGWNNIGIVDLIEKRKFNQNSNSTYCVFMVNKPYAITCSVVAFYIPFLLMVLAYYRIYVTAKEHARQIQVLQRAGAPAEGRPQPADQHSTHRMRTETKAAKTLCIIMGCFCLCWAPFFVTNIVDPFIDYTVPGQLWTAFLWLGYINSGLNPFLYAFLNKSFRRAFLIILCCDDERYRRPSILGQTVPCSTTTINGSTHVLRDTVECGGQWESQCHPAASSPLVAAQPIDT

| Compound | IC50 [1] | Ki [1] | IC50 ([2]; cho-k1) | IC50 [3] | IC50 [4] | Ki [4] | IC50 (Cytochrome P450 2A6) | Ki (Cytochrome P450 2A6) | IC50 [5] | Ki ([2]; cho-k1) | Ki [3] | Ki [5] | IC50 ([2]; read-out: IC50) [nM] | Ki ([2]; read-out: Ki) [nM] | IC50 ([3]; read-out: IC50) [nM] | Ki ([3]; read-out: Ki) [nM] | IC50 ([5]; read-out: IC50) [nM] |
| --- | --- | --- | --- | --- | --- | --- | --- | --- | --- | --- | --- | --- | --- | --- | --- | --- | --- |
| CN(Cc1cc(Br)cc(Br)c1N)C1CCCCC1 [BROMHEXINE] | Not Active | Not Active | Not Active | Not Active | Not Active | Not Active | Not Active | Not Active | – | – | – | – | – | – | – | – | – |
| CC(C)Cc1ccc([C@H](C)C(=O)O)cc1 [DEXIBUPROFEN] | Not Active | Not Active | Not Active | Not Active | Not Active | Not Active | Not Active | Not Active | Not Active | – | – | – | – | – | – | – | – |
| CC(C)Cn1cnc2c(N)nc3ccccc3c21 [IMIQUIMOD] | Not Active | Not Active | Not Active | Not Active | Not Active | Not Active | Not Active | Not Active | Not Active | – | – | – | – | – | – | – | – |
| CC(C)(C#N)c1cc(Cn2cncn2)cc(C(C)(C)C#N)c1 [ANASTROZOLE] | Not Active | Not Active | Not Active | Not Active | Not Active | Not Active | Not Active | Not Active | Not Active | – | – | – | – | – | – | – | – |
| POVIDONE | Not Active | Not Active | Not Active | Not Active | Not Active | Not Active | Not Active | Not Active | Not Active | Not Active | Not Active | Not Active | – | – | – | – | – |
| COc1ccccc1OCCNCC(O)COc1cccc2[nH]c3ccccc3c12 (stereo unspecified) [CARVEDILOL] | Not Active | Not Active | – | – | Not Active | Not Active | Not Active | Not Active | Not Active | – | – | – | 23 | 15 | 1090 | 181 | – |
| Nc1ccc(Cc2ccc(N)cc2)cc1 | Not Active | Not Active | Not Active | Not Active | Not Active | Not Active | Not Active | Not Active | Not Active | – | – | – | – | – | – | – | – |
| CARBOXYMETHYLCELLULOSE | Not Active | Not Active | Not Active | Not Active | Not Active | Not Active | Not Active | Not Active | – | Not Active | Not Active | – | – | – | – | – | 216 |
| c1ccc2sc(SSc3nc4ccccc4s3)nc2c1 [BENZOTHIAZYL DISULFIDE] | Not Active | Not Active | Not Active | Not Active | Not Active | Not Active | Not Active | Not Active | Not Active | – | – | – | – | – | – | – | – |
| O=C1c2ccccc2C(=O)C1c1ccccc1 [PHENINDIONE] | Not Active | Not Active | Not Active | Not Active | Not Active | Not Active | Not Active | Not Active | Not Active | – | – | – | – | – | – | – | – |
| Nc1ccc(C(=O)O)c(O)c1 [AMINOSALICYLIC ACID] | Not Active | Not Active | Not Active | Not Active | Not Active | Not Active | Not Active | Not Active | Not Active | – | – | – | – | – | – | – | – |
| OC[C@H]1O[C@@H]2O[C@H]3[C@H](O)[C@@H](O)[C@@H](O[C@H]4[C@H](O)[C@@H](O)[C@@H](O[C@H]5[C@H](O)[C@@H](O)[C@@H](O[C@H]6[C@H](O)[C@@H](O)[C@@H](O[C@H]7[C@H](O)[C@@H](O)[C@@H](O[C@H]1[C@H](O)[C@H]2O)O[C@@H]7CO)O[C@@H]6CO)O[C@@H]5CO)O[C@@H]4CO)O[C@@H]3CO [ALFADEX] | Not Active | Not Active | Not Active | Not Active | Not Active | Not Active | Not Active | Not Active | Not Active | – | – | – | – | – | – | – | – |
| COC(=O)C[C@](O)(CCC(C)(C)O)C(=O)O[C@@H]1C(OC)=C[C@]23CCCN2CCc2cc4c(cc2[C@H]13)OCO4 [HARRINGTONINE] | Not Active | Not Active | Not Active | Not Active | Not Active | Not Active | Not Active | Not Active | Not Active | – | – | – | – | – | – | – | – |
| CC(N)Cc1c[nH]c2ccc(OCc3cccs3)cc12 (stereo unspecified) [BW-723C86] | Not Active | Not Active | – | Not Active | Not Active | Not Active | Not Active | Not Active | Not Active | – | – | – | – | – | – | – | – |
